# Source: patent US20240398795A1, “COMBINATION THERAPIES USING PRMT5 INHIBITORS FOR THE TREATMENT OF CANCER” (MIRATI THERAPEUTICS, INC., priority 2021, published 2024)
# Assays:
# Type in all cases: in vivo, mice
# H1650 xenograft tumors = experiment: NCI-H1650 xenograft tumor volume study; details: n=5, MRTX1719 100 mg/kg PO QD, Docetaxel 10 mg/kg IP Q7D, combination 100 mg/kg PO QD + 10 mg/kg IP Q7D
# Description: (§1) Immunodeficient female nu/nu or BALBC/Nude mice were subcutaneously implanted with 3×10^6 to 1×10^7 human derived cancer cells depending on the cell line xenograft model. Tumors were measured using calipers until they reached approximately 100-150 mm^3. […] Tumor volume was measured twice a week (n=5/treatment group). Average tumor volume and standard error of the mean was calculated and plotted at each study day in GraphPad.
# (§2) This example was carried out according to the study procedure described above. The PRMT5 inhibitor was MRTX1719 administered at 100 mg/kg once a day (QD). MRTX1719 is (2M)-2-(4-(4-(aminomethyl)-1-oxo-1,2-dihydrophthalazin-6-yl)-1-methyl-1H-pyrazol-5-yl)-4-chloro-6-cyclopropoxy-3-fluorobenzonitrile, disclosed as Example 16-8 at p. 307 of the International patent publication No. WO 2021/050915 A1, published 18 Mar. 2021, incorporated by reference in its entirety.
# [1] = system: NCI-H2228 xenograft tumors; experiment: NCI-H2228 xenograft tumor volume study; details: n=5, MRTX1719 100 mg/kg PO QD, Docetaxel 10 mg/kg IP Q7D, combination 100 mg PO QD + 10 mg/kg IP Q7D
# Description: as §1, §2
# Substantially the same procedure as Example 1 was repeated except with mice bearing NCI-H2228 xenograft tumors.
# A549 xenograft tumors = experiment: A549 xenograft tumor volume study; details: n=5, MRTX1719 100 mg/kg PO QD, Docetaxel 15 mg/kg IP Q7D, combination 100 mg PO QD + 15 mg/kg IP Q7D
# Description: as §1, §2
# Substantially the same procedure as Example 1 was repeated except with mice bearing A549 xenograft tumors.
# HCC4006 xenograft tumors = experiment: HCC4006 xenograft tumor volume study; details: n=5, MRTX1719 100 mg/kg PO QD, Docetaxel 10 mg/kg IP Q7D, combination 100 mg PO QD + 10 mg/kg IP Q7D
# Description: as §1, §2
# Substantially the same procedure as Example 1 was repeated except with mice bearing HCC4006 xenograft tumors.
# SW1573 xenograft tumors = experiment: SW1573 xenograft tumor volume study; details: n=5, MRTX1719 50 mg/kg PO QD, Docetaxel 15 mg/kg IP Q7D, combination 50 mg PO QD + 15 mg/kg IP Q7D
# Description: as §1
# as §2, with “The PRMT5 inhibitor was MRTX1719 administered at 100 mg/kg once a day (QD).” left out
# Substantially the same procedure as Example 1 was repeated except with mice bearing SW1573 xenograft tumors.
# LU99 xenograft tumors = experiment: LU99 xenograft tumor volume study; details: n=5, MRTX1719 50 mg/kg PO QD, Docetaxel 15 mg/kg IP Q7D, combination 50 mg PO QD + 15 mg/kg IP Q7D
# Description: as §1
# as §2, with “The PRMT5 inhibitor was MRTX1719 administered at 100 mg/kg once a day (QD).” left out
# Substantially the same procedure of Example 1 was repeated except with mice bearing LU99 xenograft tumors.
# [2] = system: MIAPaCa-2 xenograft tumors; experiment: MIAPaCa-2 xenograft tumor volume study; details: n=5, MRTX1719 100 mg/kg PO QD, Docetaxel 15 mg/kg IP Q7D, combination 100 mg PO QD + 15 mg/kg IP Q7D
# Description: as §1
# This example was carried out according to the study procedure described above. The PRMT5 inhibitor was MRTX1719 administered at 100 mg/kg once a day (QD). […] 307 of the International patent publication No. WO 2021/050915 A1, published 18 Mar. 2021, incorporated by reference in its entirety.
# Substantially the same procedure of Example 1 was repeated except with mice bearing MIAPaCa-2 xenograft tumors.
# KP4 xenograft tumors = experiment: KP4 xenograft tumor volume study; details: n=5, Docetaxel 15 mg/kg IP Q7D, combination 100 mg PO QD + 15 mg/kg IP Q7D
# Description: as §1, §2
# Substantially the same procedure of Example 1 was repeated except with mice bearing KP4 xenograft tumors.
smiles,measurement,setting,value
"CC(=O)O[C@@]12CO[C@@H]1C[C@H](O)[C@@]1(C)C(=O)[C@H](O)C3=C(C)[C@@H](OC(=O)[C@H](O)[C@@H](NC(=O)OC(C)(C)C)c4ccccc4)C[C@@](O)([C@@H](OC(=O)c4ccccc4)[C@H]21)C3(C)C [Docetaxel, docetaxel]","Tumor Volume, Mean",H1650 xenograft tumors; Day 0,147 mm^3
same,"Tumor Volume, Mean",H1650 xenograft tumors; Day 3,291 mm^3
same,"Tumor Volume, Mean",H1650 xenograft tumors; Day 7,425 mm^3
same,"Tumor Volume, Mean",H1650 xenograft tumors; Day 10,660 mm^3
same,"Tumor Volume, Mean",H1650 xenograft tumors; Day 14,710 mm^3
same,"Tumor Volume, Mean",H1650 xenograft tumors; Day 17,770 mm^3
same,"Tumor Volume, Mean",H1650 xenograft tumors; Day 20,826 mm^3
same,"Tumor Volume, Mean",[1]; Day 0,121 mm^3
same,"Tumor Volume, Mean",[1]; Day 3,100 mm^3
same,"Tumor Volume, Mean",[1]; Day 6,73 mm^3
same,"Tumor Volume, Mean",[1]; Day 9,76 mm^3
same,"Tumor Volume, Mean",[1]; Day 13,68 mm^3
same,"Tumor Volume, Mean",[1]; Day 16,42 mm^3
same,"Tumor Volume, Mean",[1]; Day 20,15 mm^3
same,"Tumor Volume, Mean",[1]; Day 23,10 mm^3
same,"Tumor Volume, Mean",[1]; Day 27,12 mm^3
same,"Tumor Volume, Mean",A549 xenograft tumors; Day 1,118 mm^3
same,"Tumor Volume, Mean",A549 xenograft tumors; Day 5,128 mm^3
same,"Tumor Volume, Mean",A549 xenograft tumors; Day 8,156 mm^3
same,"Tumor Volume, Mean",A549 xenograft tumors; Day 12,160 mm^3
same,"Tumor Volume, Mean",A549 xenograft tumors; Day 15,169 mm^3
same,"Tumor Volume, Mean",A549 xenograft tumors; Day 19,167 mm^3
same,"Tumor Volume, Mean",A549 xenograft tumors; Day 22,163 mm^3
same,"Tumor Volume, Mean",A549 xenograft tumors; Day 26,162 mm^3
same,"Tumor Volume, Mean",A549 xenograft tumors; Day 29,189 mm^3
same,"Tumor Volume, Mean",A549 xenograft tumors; Day 34,239 mm^3
same,"Tumor Volume, Mean",HCC4006 xenograft tumors; Day 0,126 mm^3
same,"Tumor Volume, Mean",HCC4006 xenograft tumors; Day 2,151 mm^3
same,"Tumor Volume, Mean",HCC4006 xenograft tumors; Day 5,139 mm^3
same,"Tumor Volume, Mean",HCC4006 xenograft tumors; Day 9,140 mm^3
same,"Tumor Volume, Mean",HCC4006 xenograft tumors; Day 12,150 mm^3
same,"Tumor Volume, Mean",HCC4006 xenograft tumors; Day 16,143 mm^3
same,"Tumor Volume, Mean",HCC4006 xenograft tumors; Day 20,137 mm^3
same,"Tumor Volume, Mean",SW1573 xenograft tumors; Day 0,141 mm^3
same,"Tumor Volume, Mean",SW1573 xenograft tumors; Day 3,148 mm^3
same,"Tumor Volume, Mean",SW1573 xenograft tumors; Day 8,191 mm^3
same,"Tumor Volume, Mean",SW1573 xenograft tumors; Day 10,231 mm^3
same,"Tumor Volume, Mean",SW1573 xenograft tumors; Day 14,281 mm^3
same,"Tumor Volume, Mean",SW1573 xenograft tumors; Day 17,302 mm^3
same,"Tumor Volume, Mean",SW1573 xenograft tumors; Day 21,352 mm^3
same,"Tumor Volume, Mean",LU99 xenograft tumors; Day 0,153 mm^3
same,"Tumor Volume, Mean",LU99 xenograft tumors; Day 5,184 mm^3
same,"Tumor Volume, Mean",LU99 xenograft tumors; Day 8,299 mm^3
same,"Tumor Volume, Mean",LU99 xenograft tumors; Day 12,459 mm^3
same,"Tumor Volume, Mean",LU99 xenograft tumors; Day 15,757 mm^3
same,"Tumor Volume, Mean",LU99 xenograft tumors; Day 20,1057 mm^3
same,"Tumor Volume, Mean",LU99 xenograft tumors; Day 22,1255 mm^3
same,"Tumor Volume, Mean",LU99 xenograft tumors; Day 26,1722 mm^3
same,"Tumor Volume, Mean",[2]; Day 1,133 mm^3
same,"Tumor Volume, Mean",[2]; Day 5,187 mm^3
same,"Tumor Volume, Mean",[2]; Day 13,268 mm^3
same,"Tumor Volume, Mean",[2]; Day 16,315 mm^3
same,"Tumor Volume, Mean",[2]; Day 19,375 mm^3
same,"Tumor Volume, Mean",[2]; Day 22,415 mm^3
same,"Tumor Volume, Mean","KP4 xenograft tumors; Day 0, MRTX1719 100 mg/kg PO QD",144 mm^3
same,"Tumor Volume, Mean","KP4 xenograft tumors; Day 5, MRTX1719 100 mg/kg PO QD",121 mm^3
same,"Tumor Volume, Mean","KP4 xenograft tumors; Day 7, MRTX1719 100 mg/kg PO QD",105 mm^3
same,"Tumor Volume, Mean","KP4 xenograft tumors; Day 11, MRTX1719 100 mg/kg PO QD",90 mm^3
same,"Tumor Volume, Mean","KP4 xenograft tumors; Day 14, MRTX1719 100 mg/kg PO QD",82 mm^3
same,"Tumor Volume, Mean","KP4 xenograft tumors; Day 19, MRTX1719 100 mg/kg PO QD",126 mm^3
same,"Tumor Volume, Mean","KP4 xenograft tumors; Day 21, MRTX1719 100 mg/kg PO QD",272 mm^3
same,"Tumor Volume, Mean",KP4 xenograft tumors; Day 25,482 mm^3
same,"Tumor Volume, Mean",KP4 xenograft tumors; Day 28,592 mm^3
same,"Tumor Volume, Mean",KP4 xenograft tumors; Day 32,785 mm^3
same,"Tumor Volume, Mean",KP4 xenograft tumors; Day 35,895 mm^3
